From US12528802B2, “Heterocyclic compound” (Takeda Pharmaceutical Company Limited, priority 2019, dated 2026)

Columns and labels:
[1] = test system: glucosylceramide (GlcCer); test: Pharmacodynamic test using mouse (glucosylceramide lowering effect); format: in vivo; details: C57BL/6J mice, 10 mg/kg oral, six hours after administration, ± standard deviation
Description: Pharmacodynamic Test Using Mouse (Glucosylceramide Lowering Effect)
For the experiment, C57BL/6J mice were purchased from CLEA Japan, Inc. and used. Glucosylceramide synthase is an enzyme that synthesizes glucosylceramide (GlcCer) from uridine diphosphate glucose and ceramide. Therefore, the glucosylceramide synthase inhibitory effect of the compound of Example 119 was evaluated by measuring the GlcCer concentration in the tissue.
The test compound was prepared in a 0.5% methylcellulose suspension to a dose of 10 mg/kg, and orally administered. Six hours after the administration, the blood and cerebral cortex were collected, the plasma was prepared from the blood, and methanol is added to the cerebral cortex to prepare a homogenate. A mixed solution of isopropanol and ethanol was added to the obtained plasma and the methanol homogenate of the cerebral cortex, and the lipids were extracted. The GlcCer concentrations of the extracted samples were measured by LC/MS/MS.
The results were calculated from the following formula: (GlcCer concentration in the test compound administration group)/(GlcCer concentration in the 0.5% methylcellulose suspension administration group)×100.
The standard deviation values were also shown.

[2] = test system: glucosylceramide (GlcCer); test: Pharmacodynamic test using Gaucher's disease model mouse (glucosylceramide lowering effect); format: in vivo; details: Gba D409V KI mice, two hours after last administration, ± standard deviation
Description: (§1) Pharmacodynamic Test Using Gaucher's Disease Model Mouse (Glucosylceramide and Glucosylsphingosine Lowering Effects)
(§2) Glucosylsphingosine (GlcSph) is known to be produced by deacylation of GlcCer and accumulated in tissues in patient with Gaucher's disease. Therefore, the GlcSph lowering effect of the compound of Example 119 due to the glucosylceramide synthase inhibitory effect was evaluated by measuring the GlcSph concentration in the tissue. For the experiment, Gba D409V KI mice, which were Gaucher's disease model mice in which GlcSph is accumulated, were purchased from Jackson Laboratory and used.
(§3) The test compound was prepared in a 0.5% methylcellulose suspension to a dose of 10 or 30 mg/kg, and orally administered. The administration was performed once a day for 2 months. Two hours after the last administration, the blood and cerebral cortex were collected, the plasma was prepared from the blood, and methanol is added to the cerebral cortex to prepare a homogenate. A mixed solution of isopropanol and ethanol was added to the obtained plasma and the methanol homogenate of the cerebral cortex, and the lipids were extracted. The GlcCer and GlcSph concentrations of the extracted samples were measured by LC/MS/MS.
(§4) The results of GlcCer were calculated from the following formula: (GlcCer concentration in the test compound administration group)/(GlcCer concentration in the 0.5% methylcellulose suspension administration group)×100. The results of GlcSph were calculated from the following formula: (GlcSph concentration in the test compound administration group)/(GlcSph concentration in the 0.5% methylcellulose suspension administration group)×100. The standard deviation values were also shown.

[3] = target: T1, glucosylceramide synthase (Homo sapiens, UniProt Q16739); test: Glucosylceramide synthase (GCS) enzyme assay, microsome fraction, C8 glucosylceramide quantified by Rapidfire MS/MS; format: biochemical; details: test compound 10 μM; 1.7 μM UDP-glucose, 3 μM C8 ceramide; room temperature 60 min; read-out: GCS enzyme inhibitory rate at 10 μM (%) (% of control)
T1 construct: made in house; host or cells: Expi293F cells (transient expression, pcDNA3.3-TOPO vector); microsome fraction used as enzyme source
T1 sequence (Q16739 1-394): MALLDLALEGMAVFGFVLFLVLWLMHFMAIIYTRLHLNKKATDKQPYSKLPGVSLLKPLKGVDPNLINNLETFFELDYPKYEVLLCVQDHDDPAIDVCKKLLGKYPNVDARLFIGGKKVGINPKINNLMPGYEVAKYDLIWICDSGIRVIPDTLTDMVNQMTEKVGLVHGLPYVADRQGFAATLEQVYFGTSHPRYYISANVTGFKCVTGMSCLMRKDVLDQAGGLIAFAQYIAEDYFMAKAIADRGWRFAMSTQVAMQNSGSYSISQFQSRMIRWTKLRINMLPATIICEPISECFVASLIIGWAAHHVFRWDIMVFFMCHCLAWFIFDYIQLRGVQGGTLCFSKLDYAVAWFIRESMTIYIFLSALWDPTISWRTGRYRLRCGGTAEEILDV
In short: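 Test compound, 10 μM final, was run against human GCS from transfected Expi293F microsome fractions, using substrate solution of 6 μM C8 ceramide (in DOPC liposomes) plus 3.4 μM UDP-glucose, pH 7.5 Tris buffer, 60 min, room temperature. Product C8 glucosylceramide measured by Rapidfire MS/MS against an internal standard, % inhibition referenced to no-enzyme and DMSO wells.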

[4] = test system: Glucosylsphingosine (GlcSph); test: Pharmacodynamic test using Gaucher's disease model mouse (glucosylsphingosine lowering effect); format: in vivo; details: Gba D409V KI mice, two hours after last administration, ± standard deviation
Description: as §1, §2, §3, §4

[5] = 10 mg/kg oral once a day for 2 months, cerebral cortex
[6] = 10 mg/kg oral once a day for 2 months, plasma
[7] = 30 mg/kg oral once a day for 2 months, cerebral cortex
[8] = 30 mg/kg oral once a day for 2 months, plasma

CC(C)(O)c1ccc(N2Cc3c(ccnc3-c3ccc(F)cc3OCC(F)(F)F)C2=O)cc1 [Example 119, 4-[4-fluoro-2-(2,2,2-trifluoroethoxy)phenyl]-2-[4-(2-hydroxypropan-2-yl)phenyl]-2,3-dihydro-1H-pyrrolo[3,4-c]pyridin-1-one]
GlcCer (% Control) cerebral cortex ([1]; cerebral cortex): 52 ± 7 % Control
GlcCer (% Control) plasma ([1]; plasma): 49 ± 14 % Control
GlcCer (% Control) cerebral cortex (10 mg/kg) [2, 5]: 58 ± 6 % Control
GlcCer (% Control) Plasma (10 mg/kg) [2, 6]: 40 ± 10 % Control
GlcCer (% Control) cerebral cortex (30 mg/kg) [2, 7]: 40 ± 7 % Control
GlcCer (% Control) Plasma (30 mg/kg) [2, 8]: 21 ± 4 % Control
inhibition at 10 µM [3]: 100%
GlcSph (% Control) cerebral cortex (10 mg/kg) [4, 5]: 73 ± 27 % Control
GlcSph (% Control) Plasma (10 mg/kg) [4, 6]: 58 ± 16 % Control
GlcSph (% Control) cerebral cortex (30 mg/kg) [4, 7]: 61 ± 20 % Control
GlcSph (% Control) Plasma (30 mg/kg) [4, 8]: 36 ± 9 % Control

O=C1c2cc(C3CCOCC3)nc(-c3ccc(F)cc3OCC(F)(F)F)c2CN1c1ccc(F)cc1 [Example 382, 2-(4-fluorophenyl)-4-[4-fluoro-2-(2,2,2-trifluoroethoxy)phenyl]-6-(oxan-4-yl)-2,3-dihydro-1H-pyrrolo [3,4-c]pyridin-1-one]
inhibition at 10 µM [3]: 97%

CC(C)(O)c1ccc(N2Cc3c(cc(C(C)(C)F)nc3-c3ccccc3OCC(F)(F)F)C2=O)cc1 [Example 384, 6-(2-fluoropropan-2-yl)-2-[4-(2-hydroxypropan-2-yl)phenyl]-4-[2-(2,2,2-trifluoroethoxy)phenyl]-2,3-dihydro-1H-pyrrolo[3,4-c]pyridin-1-one]
inhibition at 10 µM [3]: 100%

CC(C)(F)c1cc2c(c(-c3ccc(F)cc3OCC(F)(F)F)n1)CN(c1ccc(F)cc1)C2=O [Example 385, 2-(4-fluorophenyl)-6-(2-fluoropropan-2-yl)-4-[4-fluoro-2-(2,2,2-trifluoroethoxy)phenyl]-2,3-dihydro-1H-pyrrolo[3,4-c]pyridin-1-one]
inhibition at 10 µM [3]: 99%

CC(C)(C)c1cc2c(c(-c3ccccc3OCC(F)(F)F)n1)CN(c1ccc(C(C)(C)O)cc1)C2=O [Example 389, 6-tert-butyl-2-[4-(2-hydroxypropan-2-yl)phenyl]-4-[2-(2,2,2-trifluoroethoxy)phenyl]-2,3-dihydro-1H-pyrrolo[3,4-c]pyridin-1-one]
inhibition at 10 µM [3]: 100%
